Laboratory results taken from EP4699608A1, “COMPOSITION FOR PREVENTING OR TREATING CANCER PAIN” (Maruishi Pharmaceutical Co., Ltd., priority 2023, dated 2024).

Experiments:
rats [1] = conditions: at a dose lower than that required to exert an analgesic effect; cited from earlier work
rats [2] = experiment: Coordinated motor ability (rotarod); type: in vivo; conditions: 10 rotations/min, cutoff 180 seconds, compared to control group
Description: Five- to six-week-old male SD-SPF rats (Japan SLC, Inc.) were used in this experiment. The experimental schedule included training using a rotarod (SN445, Shinano Seisakusyo) for 3 days (6 times a day), starting from 3 days before the day of administration. On the day of administration, pre-values (time to stay on the rotarod before the administration of compound A or distilled water) were measured twice, and the rats that spent 180 seconds or more on the rotarod in either of the two measurements were selected. The rats were divided into 3 groups of 6 rats each: a control group (with administration of distilled water (trade name: Otsuka Distilled Water) manufactured by Otsuka Pharmaceutical Factory, Inc.), a 10 mg/kg compound A administration group, and a 30 mg/kg compound A administration group, as shown in Table 3 below. Compound A or distilled water was orally administered to the rats at a dose of 10 mL/kg, and the time to stay on the rotarod was measured 1, 3, 6, and 24 hours after the administration under the test conditions of 10 rotations/min with a cutoff of 180 seconds.

cancer pain model rats = experiment: Pain threshold in cancer pain model rats (MRMT-1 bone metastasis model, Dynamic Plantar Aesthesiometer); type: in vivo; conditions: for cancer pain threshold: single dose, day 11 after MRMT-1 transplantation, plantar surface of right hind paw, compared to control group (Dunnett's test, 1%); for pain threshold-time area under the curve (AUC): up to 24 hours after administration, compared to morphine 3 mg/kg subcutaneous
Description: Five-week-old female Crl:CD(SD) SPF rats (Charles River Japan) were injected with MRMT-1 cells (rat breast cancer cells) at 3 × 10^4 cells/20 µL/ body into the medullary cavity at the proximal end of the diaphysis of the right tibia to create a bone metastasis model (day 0). On day 10 after the transplantation of the cancer cells (day 10), the rats were divided into 4 groups of 8 rats each: a control group (with administration of distilled water (trade name: Otsuka Distilled Water) manufactured by Otsuka Pharmaceutical Factory, Inc.), a 10 mg/kg compound A administration group, a 30 mg/kg compound A administration group, and a morphine administration group, as shown in Table 1 below. On day 11 after the transplantation of the cancer cells (day 11), each drug was orally or subcutaneously administered to the rats at a dose of 2 mL/kg. The pain threshold (g) of the plantar surface of the right hind paw was measured using a Dynamic Plantar Aesthesiometer (37450, Ugo Basile) under blinded conditions 1, 3, 6, and 24 hours after the administration. The average value of the pain threshold-time area under the curve (AUC) (g·hr) for 24 hours post-administration was determined for each group.

mice = experiment: Spontaneous locomotor activity (Supermex); type: in vivo; conditions: measured for 30 minutes, 1 or 3 hours after administration, compared to control group
Description: Five- to six-week-old male ICR-SPF mice (Japan SLC, Inc.) were divided into 5 groups of 8 mice each: a control group (with administration of distilled water (trade name: Otsuka Distilled Water) manufactured by Otsuka Pharmaceutical Factory, Inc.), two 10 mg/kg compound A administration groups, and two 30 mg/kg compound A administration groups, as shown in Table 2 below. Compound A or distilled water at a dose of 10 mL/kg was orally administered to the mice. One or three hours after the administration of compound A or distilled water, the mice were transferred to a measurement cage, and spontaneous locomotor activity was measured for 30 minutes using Supermex (registered trademark) (Muromachi Kikai Co., Ltd.).

SMILES	influences on the central nervous system (coordinated motor ability) (rats [1])	coordinated motor ability (time to stay on the rotarod) (rats [2]; 10 mg/kg oral, 1, 3, 6 and 24 hours after administration)	coordinated motor ability (time to stay on the rotarod) (rats [2]; 30 mg/kg oral, 1, 3, 6 and 24 hours after administration)	cancer pain threshold (cancer pain model rats; 10 mg/kg oral)	pain threshold-time area under the curve (AUC) (cancer pain model rats; 10 mg/kg oral)	cancer pain threshold (cancer pain model rats; 30 mg/kg oral)	pain threshold-time area under the curve (AUC) (cancer pain model rats; 30 mg/kg oral)	spontaneous locomotor activity (amount of activity) (mice; 10 mg/kg oral)	spontaneous locomotor activity (amount of activity) (mice; 30 mg/kg oral)
CC(C)C[C@H](CN)CC(=O)O [pregabalin, Pregabalin]	inhibits coordinated motor ability								
NC1CCN(c2cccc(Cl)n2)CC1 [compound A, 1-(6-chloropyridin-2-yl)piperidin-4-amine]		no significant changes in the coordinated motor ability	no significant changes in the coordinated motor ability	significantly increased	no statistically significant difference	significantly increased	no statistically significant difference	no significant changes in the amount of activity	no significant changes in the amount of activity
